Measured values from article PMC4725915, “Ruthenium(II) Complexes with 2-Phenylimidazo[4,5-f][1,10]phenanthroline Derivatives that Strongly Combat Cisplatin-Resistant Tumor Cells” (Scientific Reports, 2016).

How the values were obtained:
Assay type in all cases: cell-based, human
A549R cells = experiment: AO/EB staining apoptosis assay; conditions: 0.50–2.0 μM
Excerpt: Cell apoptosis is a naturally occurring, programmed and targeted cellular death mechanism that is very complex and is regulated by some proteins. This process is also greatly affected by extrinsic conditions. Therefore, it is important to study the influence of drug-induced cellular apoptosis. Firstly, the induction of A549R cell apoptosis by complex 4 was investigated by apoptosis assays using AO/EB staining and fluorescence microscopy. […] Necrotic cells are stained in red but have nuclear morphologies that resemble those of viable cells.

HeLa = experiment: MTT cytotoxicity assay, HeLa; conditions: 48 h, mean ± SD of three experiments
Description: (§1) Compounds 1–4 were evaluated against three tumor cell lines derived from different tissues, including the cervix (HeLa), lung (A549) and cisplatin-resistant lung (A549R) tissues. For comparison, the cytotoxicity of cisplatin was also evaluated. As a control, the toxicities of the complexes were also tested against the normal human cell line (LO2).
(§2) The human cervix carcinoma cell line (HeLa), the lung carcinoma cell lines (A549 and A549R), and the human hepatocyte cell line (LO2) were obtained from the Experimental Animal Center at Sun Yat-Sen University (Guangzhou, China). The cells were maintained in Dulbecco’s modified Eagle’s medium (DMEM, Gibco BRL) or Roswell Park Memorial Institute 1640 (RPMI 1640, Gibco BRL) medium supplemented with 10% fetal bovine serum (FBS, Gibco BRL), 100 μg/mL streptomycin, and 100 U/mL penicillin (Gibco BRL) in a humidified incubator under 5% CO2 and 20% O2 at 37 °C. To maintain the resistant phenotype, A549R cells were incubated with 5 μM cisplatin and cultured in drug-free medium for at least a week before use.
(§3) The cytotoxicity of the ruthenium complexes and cisplatin were determined by an MTT assay. Briefly, cells were seeded into 96-well microtiter plates at 1 × 10^4 cells per well and grown overnight at 37 °C in a 5% CO2 incubator; then, different concentrations of the complexes in cell culture medium were added to the cultures. The plates were then incubated in an incubator for 48 h under the same conditions. The stock MTT dye solution (15 μL, 5 mg/mL) was added to each well. After 4 h of incubation, the cultures were removed and 150 μL of DMSO was added to each well. The optical density of each well was measured on a microplate spectrophotometer at a wavelength of 595 nm.

TrxR [1] = experiment: TrxR activity assay in A549R cells (DTNB reduction); conditions: 4.0 μM, 12 h
Excerpt: (§4) The elevated levels of TrxR in cancers, especially in non-small cell lung cancers, are responsible for drug resistance. The thioredoxin system has a significant influence on intracellular physiological processes, such as antioxidant defense, cell functions, cell apoptosis and cell proliferation. TrxR has previously been identified as a drug target. […] In addition, the expression levels of TrxR in A549R cells in response to the addition of complex 4 were also examined by Western blot analysis.
A549R cells (2 × 10^6 cells) treated or untreated with complex 4 for 12 h were homogenized in 100–200 μl of cold assay buffer on ice and a protease inhibitor cocktail was added to the sample; the sample was then centrifuged at 10,000 x g for 15 min at 4 °C. The supernatant was collected for the assay and stored on ice. The protein concentration of each supernatant was determined using the Bradford reagent. A total of 40 μl of the reaction mix (30 μl assay buffer, 8 μl 5, 5′-dithiobis (2-nitrobenzoic) acid (DTNB) solution and 2 μl NADPH) was added to each sample and incubated at 25 °C for 20 min. TrxR catalyzes the reduction of DTNB by NADPH to 5-thio-2-nitrobenzoic acid (TNB2), which generates a strong yellow color (λmax = 412 nm); consequently, the amount of […] was used to monitor the change in absorbance at 412 nm. […]

A549R = experiment: MTT cytotoxicity assay, cisplatin-resistant A549R; conditions: 48 h, mean ± SD of three experiments
Description: as §1, §2, §3

A549R MCTSs = experiment: Cytotoxicity test on 3D MCTSs (Cell TiterGlo ATP); conditions: A549R MCTSs (~400 μm in diameter), 48 h
Description: MCTSs were cultured using the liquid overlay method. A549R cells in the exponential growth phase were dissociated by a trypsin/EDTA solution to gain single-cell suspensions. A number of 3000 diluted A549R cells were transferred to 1.5% agarose-coated transparent 96-well plates with 200 μL of DMEM containing 10% serum. The single cells formed MCTS aggregates approximately 400 μm in diameter after three days with 5% CO2 and 20% O2 at 37 °C. After formation of the MCTSs, each MCTS in a 96-well plate was imaged with a phase contrast microscope (Zeiss Axio Observer D1, Germany) using 10× objective to monitor their color, integrity, diameter, and volume.
A549R MCTSs (diameters ≈400 μm) were treated by carefully replacing 50% of the medium with drug-supplemented standard medium using an eight-channel pipet. In parallel, 50% of the medium containing solvent was replaced with solvent-free medium for the untreated MCTSs. Three A549R MCTSs were treated per condition and drug concentration; the DMSO volume was less than 1% (v/v). The MCTSs were then allowed to incubate for another 48 h. The cytotoxicities of the Ru(II) complexes toward the MCTSs were measured using ATP concentrations with a Cell TiterGlo kit (Promega). After 30 min of incubation, the MCTSs were carefully transferred into black-sided, flat-bottomed 96-well plates (Corning) and mixed with a pipet for luminescence measurements on an Infinite M200 PRO instrument (TECAN).

TrxR [2] = experiment: Western blot of TrxR expression in A549R cells; conditions: different concentrations, 12 h
Excerpt: as §4
A549R cells were seeded into 10 cm tissue culture dishes (Corning), incubated for 24 h, and treated with complex 4 for 12 h. The cells were washed with ice-cold PBS and lysed by incubation in radio immune precipitation assay buffer (RIPA) and a protease inhibitor cocktail (Sigma) for 30 min on ice. The lysates were centrifuged at 15000 rpm for 15 min at 4 °C, and the protein concentrations were quantified by a BCA protein assay reagent kit (Sigma). The proteins were separated on precast NuPAGE 4% to 12% polyacrylamide gradient Bis–Tris gels (Invitrogen) under denaturing conditions, transferred to PVDF membranes (Invitrogen), and subjected to Western blot analyses. […] The bound immune complexes were detected using an ECL prime Western blot detection reagent (Amersham Inc., USA). […]

With Ru(phen)(bzq)(tbtfpip)(PF6) [Complex 4] the AO/EB staining result (A549R cells) was “predominantly induced apoptosis”, the IC50 (HeLa) was 2.4 ± 0.3 µM and the “decline of intracellular TrxR activity” value (TrxR [1]) was “approximately 45%”. The IC50 (A549R) was 0.8 ± 0.1 µM, the IC50 (A549R MCTSs) was 1.8 ± 0.3 µM and the “expression levels of TrxR” value (TrxR [2]) was “downregulated”.
